Test results taken from article PMC4890880 (ACS infectious diseases, 2016).
Where two headings read alike, the source gives them in different places.

Experiments:
HepG2-A16-CD81EGFP cells = settings: for IC50: read-out: Tox_IC50, HepG2 cytotoxicity
[1] = test system: Plasmodium berghei (Pb-Luc) exoerythrocytic-stage parasites; settings: for normalized signal at 0.000508053 (first series): concentration 0.000508053, first replicate series; for normalized signal at 0.000508053 (first series) / normalized signal at 0.000508053 (second series) / normalized signal at 0.00152416 (first series) / normalized signal at 0.00152416 (second series) / normalized signal at 0.00457247 (first series) / normalized signal at 0.00457247 (second series) / normalized signal at 0.0137174 (first series) / normalized signal at 0.0137174 (second series) / normalized signal at 0.0411523 (first series) / normalized signal at 0.0411523 (second series) / normalized signal at 0.123457 (first series) / normalized signal at 0.123457 (second series) / normalized signal at 0.37037 (first series) / normalized signal at 0.37037 (second series) / normalized signal at 1.11111 (first series) / normalized signal at 1.11111 (second series) / normalized signal at 3.33333 (first series) / normalized signal at 3.33333 (second series) / normalized signal at 10 (first series) / normalized signal at 10 (second series) / normalized signal at concentration 0.000508053 / normalized signal at concentration 0.00152416 / normalized signal at concentration 0.00457247 / normalized signal at concentration 0.0137174 / normalized signal at concentration 0.0411523 / normalized signal at concentration 0.123457 / normalized signal at concentration 0.37037 / normalized signal at concentration 1.11111 / normalized signal at concentration 3.33333 / normalized signal at concentration 10: fraction of control; for normalized signal at 0.000508053 (second series): concentration 0.000508053, second replicate series; for normalized signal at 0.00152416 (first series): concentration 0.00152416, first replicate series; for normalized signal at 0.00152416 (second series): concentration 0.00152416, second replicate series; for normalized signal at 0.00457247 (first series): concentration 0.00457247, first replicate series; for normalized signal at 0.00457247 (second series): concentration 0.00457247, second replicate series; for normalized signal at 0.0137174 (first series): concentration 0.0137174, first replicate series; for normalized signal at 0.0137174 (second series): concentration 0.0137174, second replicate series; for normalized signal at 0.0411523 (first series): concentration 0.0411523, first replicate series; for normalized signal at 0.0411523 (second series): concentration 0.0411523, second replicate series; for normalized signal at 0.123457 (first series): concentration 0.123457, first replicate series; for normalized signal at 0.123457 (second series): concentration 0.123457, second replicate series; for normalized signal at 0.37037 (first series): concentration 0.37037, first replicate series; for normalized signal at 0.37037 (second series): concentration 0.37037, second replicate series; for normalized signal at 1.11111 (first series): concentration 1.11111, first replicate series; for normalized signal at 1.11111 (second series): concentration 1.11111, second replicate series; for normalized signal at 3.33333 (first series): concentration 3.33333, first replicate series; for normalized signal at 3.33333 (second series): concentration 3.33333, second replicate series; for normalized signal at 10 (first series): concentration 10, first replicate series; for normalized signal at 10 (second series): concentration 10, second replicate series; for IC50: read-out: PbLuc_IC50
[2] = 2nd round, maximal inhibition in dose series
[3] = 2nd round, Broad DOS compounds, unit not printed (dose series head 10 to 0.000508053)
[4] = sheet 2nd round, maximal inhibition in dose response
[5] = second series of columns (replicate)

COc1ccc(NC(=O)N(C)C[C@H]2Oc3ccc(NC(=O)Nc4cccc5ccccc45)cc3CC(=O)N([C@@H](C)CO)C[C@@H]2C)cc1 [BRD-K15104969-001-01-5]
Tox_max_inhibition (%) (HepG2-A16-CD81EGFP cells; [2]): 14%
IC50 (HepG2-A16-CD81EGFP cells; 2nd round, unit inferred): > 10 µM
PbLuc_max_inhibition (%) [1, 2]: 44%
normalized signal at 0.000508053 (first series) [1]: 0.969
normalized signal at 0.000508053 (second series) [1]: 0.7927
normalized signal at 0.00152416 (first series) [1]: 1.086
normalized signal at 0.00152416 (second series) [1]: 0.9921
normalized signal at 0.00457247 (first series) [1]: 0.8915
normalized signal at 0.00457247 (second series) [1]: 0.8364
normalized signal at 0.0137174 (first series) [1]: 1.267
normalized signal at 0.0137174 (second series) [1]: 0.9174
normalized signal at 0.0411523 (first series) [1]: 0.9934
normalized signal at 0.0411523 (second series) [1]: 0.8265
normalized signal at 0.123457 (first series) [1]: 1.28
normalized signal at 0.123457 (second series) [1]: 0.8011
normalized signal at 0.37037 (first series) [1]: 0.9047
normalized signal at 0.37037 (second series) [1]: 0.8073
normalized signal at 1.11111 (first series) [1]: 0.8441
normalized signal at 1.11111 (second series) [1]: 0.8236
normalized signal at 3.33333 (first series) [1]: 0.7436
normalized signal at 3.33333 (second series) [1]: 1.005
normalized signal at 10 (first series) [1]: 0.5627
normalized signal at 10 (second series) [1]: 0.5558
IC50 [1, 3]: > 10 µM

O=C(Nc1ccc2c(c1)[C@@H]1C[C@@H](CC(=O)N3CCc4ccccc4C3)O[C@@H](CO)[C@@H]1O2)c1ccc2c(c1)OCO2 [BRD-K15778794-001-01-7]
IC50 (HepG2-A16-CD81EGFP cells; sheet 2nd round): > 10 µM
Tox_max_inhibition (%) (HepG2-A16-CD81EGFP cells; [4]): 18%
normalized signal at concentration 0.000508053 ([1]; first series of columns): 1.025
normalized signal at concentration 0.00152416 ([1]; first series of columns): 1.17
normalized signal at concentration 0.00457247 ([1]; first series of columns): 0.8971
normalized signal at concentration 0.0137174 ([1]; first series of columns): 1.186
normalized signal at concentration 0.0411523 ([1]; first series of columns): 1.0917
normalized signal at concentration 0.123457 ([1]; first series of columns): 0.8992
normalized signal at concentration 0.37037 ([1]; first series of columns): 1.075
normalized signal at concentration 1.11111 ([1]; first series of columns): 1.105
normalized signal at concentration 3.33333 ([1]; first series of columns): 0.9056
normalized signal at concentration 10 ([1]; first series of columns): 0.4372
IC50 ([1]; sheet 2nd round, Pb-Luc exoerythrocytic stage, 10-point dose response, top concentration 10): > 10 µM
normalized signal at concentration 0.000508053 [1, 5]: 0.9828
normalized signal at concentration 0.00152416 [1, 5]: 0.8672
normalized signal at concentration 0.00457247 [1, 5]: 0.9127
normalized signal at concentration 0.0137174 [1, 5]: 0.911
normalized signal at concentration 0.0411523 [1, 5]: 0.8229
normalized signal at concentration 0.123457 [1, 5]: 0.8258
normalized signal at concentration 0.37037 [1, 5]: 0.9225
normalized signal at concentration 1.11111 [1, 5]: 1.043
normalized signal at concentration 3.33333 [1, 5]: 0.8183
normalized signal at concentration 10 [1, 5]: 0.6797
PbLuc_max_inhibition (%) [1, 4]: 56%

C[C@@H]1CCCCO[C@@H](CN(C)S(=O)(=O)c2ccc(F)cc2)[C@H](C)CN([C@H](C)CO)C(=O)c2cc(N(C)C)ccc2O1 [BRD-K17570530-001-01-5]
IC50 (HepG2-A16-CD81EGFP cells; sheet "2nd round"): > 10 µM
Tox_max_inhibition (%) (HepG2-A16-CD81EGFP cells; sheet "2nd round"): 4.52%
normalised signal at concentration 0.000508053 (first series) ([1]; concentration 0.000508053, first series): 0.9121
normalised signal at concentration 0.000508053 (second series) ([1]; concentration 0.000508053, second series): 0.9459
normalised signal at concentration 0.00152416 (first series) ([1]; concentration 0.00152416, first series): 0.7511
normalised signal at concentration 0.00152416 (second series) ([1]; concentration 0.00152416, second series): 0.8649
normalised signal at concentration 0.00457247 (first series) ([1]; concentration 0.00457247, first series): 0.9449
normalised signal at concentration 0.00457247 (second series) ([1]; concentration 0.00457247, second series): 0.9685
normalised signal at concentration 0.0137174 (first series) ([1]; concentration 0.0137174, first series): 0.964
normalised signal at concentration 0.0137174 (second series) ([1]; concentration 0.0137174, second series): 0.9508
normalised signal at concentration 0.0411523 (first series) ([1]; concentration 0.0411523, first series): 1.052
normalised signal at concentration 0.0411523 (second series) ([1]; concentration 0.0411523, second series): 0.9313
normalised signal at concentration 0.123457 (first series) ([1]; concentration 0.123457, first series): 1.16
normalised signal at concentration 0.123457 (second series) ([1]; concentration 0.123457, second series): 0.9927
normalised signal at concentration 0.37037 (first series) ([1]; concentration 0.37037, first series): 0.8577
normalised signal at concentration 0.37037 (second series) ([1]; concentration 0.37037, second series): 0.9491
normalised signal at concentration 1.11111 (first series) ([1]; concentration 1.11111, first series): 0.9131
normalised signal at concentration 1.11111 (second series) ([1]; concentration 1.11111, second series): 0.9395
normalised signal at concentration 3.33333 (first series) ([1]; concentration 3.33333, first series): 0.7629
normalised signal at concentration 3.33333 (second series) ([1]; concentration 3.33333, second series): 0.867
normalised signal at concentration 10 (first series) ([1]; concentration 10, first series of dose columns): 0.8313
normalised signal at concentration 10 (second series) ([1]; concentration 10, second series of dose columns): 0.7644
IC50 ([1]; sheet "2nd round", Broad compounds, dose response top concentration 10): > 10 µM
PbLuc_max_inhibition (%) ([1]; sheet "2nd round"): 25%

O=C(C[C@@H]1CC[C@@H]2[C@H](COC[C@@H](O)CN2C(=O)c2ccncc2)O1)Nc1ccc(-c2ccccc2)cc1 [BRD-K17686828-001-01-0]
Tox_max_inhibition (%) (HepG2-A16-CD81EGFP cells; [2]): 9%
IC50 (HepG2-A16-CD81EGFP cells; 2nd round, unit inferred): > 10 µM
PbLuc_max_inhibition (%) [1, 2]: 43%
normalized signal at 0.000508053 (first series) [1]: 1.033
normalized signal at 0.000508053 (second series) [1]: 0.8541
normalized signal at 0.00152416 (first series) [1]: 0.9014
normalized signal at 0.00152416 (second series) [1]: 0.8307
normalized signal at 0.00457247 (first series) [1]: 0.9821
normalized signal at 0.00457247 (second series) [1]: 0.9422
normalized signal at 0.0137174 (first series) [1]: 1.011
normalized signal at 0.0137174 (second series) [1]: 0.8936
normalized signal at 0.0411523 (first series) [1]: 0.9016
normalized signal at 0.0411523 (second series) [1]: 0.7632
normalized signal at 0.123457 (first series) [1]: 1.067
normalized signal at 0.123457 (second series) [1]: 0.5683
normalized signal at 0.37037 (first series) [1]: 0.7959
normalized signal at 0.37037 (second series) [1]: 0.6689
normalized signal at 1.11111 (first series) [1]: 0.9118
normalized signal at 1.11111 (second series) [1]: 0.6624
normalized signal at 3.33333 (first series) [1]: 0.9028
normalized signal at 3.33333 (second series) [1]: 0.8412
normalized signal at 10 (first series) [1]: 0.8222
normalized signal at 10 (second series) [1]: 0.7063
IC50 [1, 3]: > 10 µM

C/C=C/c1ccc([C@H]2[C@@H](CO)N(CC3CCCCC3)[C@@H]2CNC(C)C)cc1 [BRD-K19633528-001-01-3]
Tox_max_inhibition (%) (HepG2-A16-CD81EGFP cells; [2]): 16%
IC50 (HepG2-A16-CD81EGFP cells; 2nd round, unit inferred): > 10 µM
PbLuc_max_inhibition (%) [1, 2]: 58%
normalized signal at 0.000508053 (first series) [1]: 1
normalized signal at 0.000508053 (second series) [1]: 0.834
normalized signal at 0.00152416 (first series) [1]: 0.9222
normalized signal at 0.00152416 (second series) [1]: 0.7558
normalized signal at 0.00457247 (first series) [1]: 0.9507
normalized signal at 0.00457247 (second series) [1]: 1.046
normalized signal at 0.0137174 (first series) [1]: 0.9718
normalized signal at 0.0137174 (second series) [1]: 0.826
normalized signal at 0.0411523 (first series) [1]: 1.123
normalized signal at 0.0411523 (second series) [1]: 1.151
normalized signal at 0.123457 (first series) [1]: 1.141
normalized signal at 0.123457 (second series) [1]: 0.8556
normalized signal at 0.37037 (first series) [1]: 1.177
normalized signal at 0.37037 (second series) [1]: 1.086
normalized signal at 1.11111 (first series) [1]: 1.183
normalized signal at 1.11111 (second series) [1]: 0.9808
normalized signal at 3.33333 (first series) [1]: 1.3301
normalized signal at 3.33333 (second series) [1]: 0.9519
normalized signal at 10 (first series) [1]: 0.5856
normalized signal at 10 (second series) [1]: 0.4223
IC50 [1, 3]: > 10 µM
